T1: ENTH1 (Ent1 ENTH domain, S. cerevisiae) (Saccharomyces cerevisiae, UniProt Q12518, T104E)
T1 construct: ENTH domain (N-terminal); purified recombinant
T1 sequence (Q12518 1-154 T104E): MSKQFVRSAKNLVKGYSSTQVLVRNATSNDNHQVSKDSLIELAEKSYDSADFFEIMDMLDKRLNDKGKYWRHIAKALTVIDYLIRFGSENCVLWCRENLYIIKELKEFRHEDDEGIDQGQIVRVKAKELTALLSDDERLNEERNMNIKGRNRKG

T2: CALM ANTH domain (Homo sapiens, UniProt Q13492)
T2 construct: gene PICALM; ANTH domain; E. coli, N-terminal His6 tag cut with TEV
T2 sequence (Q13492 1-289 limits assumed): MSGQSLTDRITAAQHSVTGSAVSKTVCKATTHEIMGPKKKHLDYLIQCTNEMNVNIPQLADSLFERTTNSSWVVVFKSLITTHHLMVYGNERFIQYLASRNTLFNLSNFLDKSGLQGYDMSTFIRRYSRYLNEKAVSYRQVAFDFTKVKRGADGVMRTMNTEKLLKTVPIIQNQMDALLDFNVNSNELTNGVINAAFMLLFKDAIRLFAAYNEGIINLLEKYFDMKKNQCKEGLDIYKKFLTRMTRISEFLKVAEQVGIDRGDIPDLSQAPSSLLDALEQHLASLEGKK

T3: ENTH2 (Ent2 ENTH domain, S. cerevisiae) (Saccharomyces cerevisiae, UniProt Q05785)
T3 construct: ENTH domain (N-terminal); purified recombinant; two domains sandwich one PIP2 in the crystal
T3 sequence (Q05785 1-156): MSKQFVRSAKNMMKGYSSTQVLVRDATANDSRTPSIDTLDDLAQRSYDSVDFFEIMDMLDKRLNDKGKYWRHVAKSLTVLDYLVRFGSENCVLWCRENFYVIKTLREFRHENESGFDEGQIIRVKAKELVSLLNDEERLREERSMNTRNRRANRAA

T4: human epsin-1 ENTH (EPN1) (Homo sapiens, UniProt Q9Y6I3)
T4 construct: ENTH domain aa 1-158, extra Gly after start Met; E. coli His-GST fusion, tag cut with TEV; hexamer with PIP2
T4 sequence (Q9Y6I3 1-158): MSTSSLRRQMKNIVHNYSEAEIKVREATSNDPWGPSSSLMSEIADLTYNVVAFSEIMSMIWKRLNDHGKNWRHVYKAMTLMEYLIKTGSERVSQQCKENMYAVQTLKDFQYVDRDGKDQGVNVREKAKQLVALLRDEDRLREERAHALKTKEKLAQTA

T5: human epsin-1 ENTH/Hip1R ANTH complex (Homo sapiens, UniProt O75146+Q9Y6I3)
T5 construct: gene EPN1; EPN1 aa 1-158 (extra Gly after Met) and Hip1R aa 1-300; His-GST tags cut with TEV; 6:0 to 8:8, mainly 6:6
T5 sequence (Q9Y6I3 1-158): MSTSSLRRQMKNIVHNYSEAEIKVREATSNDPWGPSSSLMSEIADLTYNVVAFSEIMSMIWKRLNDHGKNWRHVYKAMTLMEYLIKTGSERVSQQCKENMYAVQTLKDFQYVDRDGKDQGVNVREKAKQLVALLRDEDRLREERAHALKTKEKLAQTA
T5 sequence (O75146 1-300): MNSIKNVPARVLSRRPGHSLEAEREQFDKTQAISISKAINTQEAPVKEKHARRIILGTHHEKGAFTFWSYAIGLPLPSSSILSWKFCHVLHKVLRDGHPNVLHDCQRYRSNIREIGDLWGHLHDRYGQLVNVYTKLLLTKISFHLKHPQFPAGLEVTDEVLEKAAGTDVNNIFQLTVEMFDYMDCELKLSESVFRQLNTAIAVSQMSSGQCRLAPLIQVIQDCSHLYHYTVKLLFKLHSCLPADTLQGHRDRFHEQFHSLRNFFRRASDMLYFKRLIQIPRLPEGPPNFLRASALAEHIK

T6: ANTHSla2 (S. cerevisiae) (Saccharomyces cerevisiae, UniProt P33338)
T6 construct: gene SLA2; ANTH domain (N-terminal); purified recombinant
T6 sequence (P33338 1-360 limits assumed): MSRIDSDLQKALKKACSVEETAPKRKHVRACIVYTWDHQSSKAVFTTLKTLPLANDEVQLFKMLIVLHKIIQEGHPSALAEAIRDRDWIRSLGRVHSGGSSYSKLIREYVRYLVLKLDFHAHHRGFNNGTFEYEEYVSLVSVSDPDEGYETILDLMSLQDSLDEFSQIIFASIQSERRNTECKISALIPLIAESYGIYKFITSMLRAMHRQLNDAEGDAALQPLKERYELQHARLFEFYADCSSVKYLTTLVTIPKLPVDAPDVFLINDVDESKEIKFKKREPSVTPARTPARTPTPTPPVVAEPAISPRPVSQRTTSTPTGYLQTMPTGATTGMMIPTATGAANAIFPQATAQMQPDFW

T7: ENTH (epsin ENTH domain, C. thermophilum) (Thermochaetoides thermophila, UniProt G0SAK2)
T7 construct: ENTH domain; E. coli, N-terminal His6 tag cut with TEV
T7 sequence (G0SAK2 with tags, fused parts or gaps): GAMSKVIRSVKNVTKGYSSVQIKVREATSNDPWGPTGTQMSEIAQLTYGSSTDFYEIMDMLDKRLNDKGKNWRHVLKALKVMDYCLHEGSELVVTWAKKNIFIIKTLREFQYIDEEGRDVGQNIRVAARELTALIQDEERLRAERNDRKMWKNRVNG

T8: ENTH1 (Ent1 ENTH domain, S. cerevisiae) (Saccharomyces cerevisiae, UniProt Q12518)
T8 construct: ENTH domain (N-terminal); purified recombinant
T8 sequence (Q12518 1-154): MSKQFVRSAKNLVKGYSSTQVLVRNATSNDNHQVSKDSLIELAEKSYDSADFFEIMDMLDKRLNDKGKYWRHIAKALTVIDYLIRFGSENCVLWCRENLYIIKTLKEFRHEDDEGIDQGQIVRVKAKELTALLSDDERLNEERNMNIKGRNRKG

T9: Epsin (Ent1) ENTH (Saccharomyces cerevisiae, UniProt Q12518)
T9 chain: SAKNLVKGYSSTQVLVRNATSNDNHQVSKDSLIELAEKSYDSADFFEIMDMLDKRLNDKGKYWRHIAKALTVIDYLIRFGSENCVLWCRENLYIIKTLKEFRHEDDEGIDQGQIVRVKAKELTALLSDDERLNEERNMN


Key:
[1] = biological target: T1, ENTH1 (Ent1 ENTH domain, S. cerevisiae); assay: native MS; type: binding; settings: ammonium acetate, 1 mM DTT, pH 8.0; 10 uM protein, 60 uM PIP2
CALM ANTH domain = biological target: T2, CALM ANTH domain; assay: native MS titration, corrected for unspecific binding; settings: ammonium acetate 300 mM, 1 mM DTT, pH 8.0; 10 uM protein, 60 uM PIP2; two sites, not cooperative
[2] = biological target: T3, ENTH2 (Ent2 ENTH domain, S. cerevisiae); assay: as above; settings: ammonium acetate 300 mM, 1 mM DTT, pH 8.0; 10 uM protein, 60 uM PIP2; two sites, positive cooperativity
[3] = biological target: T4, human epsin-1 ENTH (EPN1); assay: native MS; SAXS; type: binding; settings: hexamer formation with PIP2; SAXS in 20 mM Tris-HCl pH 8.0, 250 mM NaCl, 0.2 mM PIP2
[4] = biological target: T5, human epsin-1 ENTH/Hip1R ANTH complex; assay: native MS of assembled complex; type: binding; settings: ammonium acetate 300 mM, 1 mM DTT, pH 8.0; 10 uM ENTH, 10 uM ANTH, 60 uM PIP2; stoichiometry
ANTHSla2 (S. cerevisiae) [5] = biological target: T6, ANTHSla2 (S. cerevisiae); assay: native MS titration, corrected for unspecific binding; settings: ammonium acetate 300 mM, 1 mM DTT, pH 8.0; 10 uM protein, 60 uM PIP2; two sites, positive cooperativity
[6] = biological target: T7, ENTH (epsin ENTH domain, C. thermophilum); assay: as above; settings: ammonium acetate 300 mM, 1 mM DTT, pH 8.0; 10 uM protein, 60 uM PIP2; two sites, positive cooperativity
[7] = biological target: T10, ANTHSla2 (C. thermophilum), ANTHCh (Thermochaetoides thermophila, UniProt G0S106); assay: as above; settings: ammonium acetate 300 mM, 1 mM DTT, pH 8.0; 10 uM protein, 60 uM PIP2; two sites
T10 construct: gene CTHT_0011900; ANTH domain; E. coli, N-terminal His6 tag cut with TEV

[8] = biological target: T8, ENTH1 (Ent1 ENTH domain, S. cerevisiae); assay: as above; settings: ammonium acetate 300 mM, 1 mM DTT, pH 8.0; 10 uM protein, 60 uM PIP2; two sites, positive cooperativity
[9] = biological target: T3, ENTH2 (Ent2 ENTH domain, S. cerevisiae); assay: X-ray crystal structure, […] A; type: binding; settings: 0.1 M MES pH 6.5, 1.45 M ammonium sulfate; canonical phosphoinositide pocket, dimer interface
ANTHSla2 (S. cerevisiae) [10] = biological target: T6, ANTHSla2 (S. cerevisiae); assay: native MS titration, corrected for unspecific binding; settings: ammonium acetate 300 mM, 1 mM DTT, pH 8.0; 10 uM protein, 60 uM PIP2; second site (canonical site removed)
Epsin (Ent1) ENTH = biological target: T9, Epsin (Ent1) ENTH; assay: ITC

T10 sequence (G0S106 entry or part of it): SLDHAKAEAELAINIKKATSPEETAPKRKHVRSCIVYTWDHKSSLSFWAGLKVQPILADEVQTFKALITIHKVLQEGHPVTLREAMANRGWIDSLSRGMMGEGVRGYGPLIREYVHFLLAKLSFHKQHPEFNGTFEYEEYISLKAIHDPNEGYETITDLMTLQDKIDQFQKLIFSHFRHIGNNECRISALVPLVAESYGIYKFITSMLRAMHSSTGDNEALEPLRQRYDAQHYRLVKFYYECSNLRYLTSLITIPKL

Molecule	native MS [1]	KD,1 / KD,2 (macroscopic) (CALM ANTH domain)	KD,1 / KD,2 (macroscopic) [2]	native MS; SAXS [3]	native MS of assembled complex [4]	KD,1 / KD,2 (macroscopic) (ANTHSla2 (S. cerevisiae) [5])	KD,1 / KD,2 (macroscopic) [6]	KD,1 / KD,2 (macroscopic) [7]	KD,1 / KD,2 (macroscopic) [8]	X-ray crystal structure, 3.35 A [9]	dissociation constant (ANTHSla2 (S. cerevisiae) [10]) [µM]	Kd (Epsin (Ent1) ENTH) [nM]
CCCCCCCC(=O)OC[C@H](COP(=O)(O)O[C@@H]1[C@H](O)[C@H](O)[C@@H](OP(=O)(O)O)[C@H](OP(=O)(O)O)[C@H]1O)OC(=O)CCCCCCC [PIP2]	Thr104Glu mutant of ENTH1 from S. cerevisiae shows a reduction of PIP2 binding	macroscopic dissociation constants for CALM suggest higher affinity for the first PIP2-binding site	ENTH1 and ENTH2) from S. cerevisiae	A minimum of six PIP2 molecules is required for human ENTH hexamer formation	human epsin-1 ENTH domain with human Hip1R ANTH domain and PIP2	PIP2 dissociation constants are higher for Sla2 ANTH domains than for ENTH domains	homologous epsin from C. thermophilum bind up to two PIP2 molecules per domain	several ANTH domains, showing two PIP2 binding sites for all wild-type proteins	ENTH1 and ENTH2) from S. cerevisiae	The structure shows two ENTH2 domains sandwiched around one PIP2 molecule	300 ± 70	–
Sla2 ANTH (protein, PIP2) MSRIDSDLQKALKKACSVEETAPKRKHVRACIVYTWDHQSSKAVFTTLKTLPLANDEVQLFKMLIVLHKIIQEGHPSALAEAIRDRDWIRSLGRVHSGGSSYSKLIREYVRYLVLKLDFHAHHRGFNNGTFEYEEYVSLVSVSDPDEGYETILDLMSLQDSLDEFSQIIFASIQSERRNTECKISALIPLIAESYGIYKFITSMLRAMHRQLNDAEGDAALQPLKERYELQHARLFEFYADCSSVKYLTTLVTIPKLPVDAPDVFLINDVDESKEIKFKKREPSVT	–	–	–	–	–	–	–	–	–	–	–	450

Source: article PMC5780493, “Epsin and Sla2 form assemblies through phospholipid interfaces” (Nature Communications, 2018)
